Laboratory results as given in patent publication US20110195974A1, “METHODS OF TREATING INFLAMMATORY CONDITIONS WITH ADRENERGIC ANTAGONISTS” (priority 2007, published 2011).
“Also recorded” adds a separate entry of the source. Where a name gives a salt, the structure may show the parent alone.

Columns and labels:
arthritis [1] = conditions: cited from earlier work; for inhibition of inflammation in an arthritis model: in vivo
[2] = test system: collagen induced arthritis; conditions: cited from earlier work
TNFα = assay: Whole blood assay: inhibition of LPS-induced TNFα release (TNF ELISA); type: cell-based, human; conditions: for effect on TNF production or release (in words) / inhibition of TNF production at the upper range of the dose curve: 25% whole blood diluted in plasmalyte
Procedure: […]. […] The experiment was conducted at least 2 times in duplicates and the fitted representation above consists of the average of those experiments. The IC50 values were calculated using logistic analysis on Origin Software.
FIG. 4 illustrates a graph showing the inhibition of release of TNF α by terbutaline and salbutamol. This assay evaluated the inhibition of TNF production by salbutamol and terbutaline using the whole blood assay. This method utilized an LPS induction at 10 μg/ml in 25% whole blood diluted in plasmalyte. […] Higher doses were not evaluated because the equivalent mg/kg doses would be too high, therefore, limiting their practical use under therapeutic conditions. IC50 values were not calculated. […] The data and the fit were calculated using Origin Software.
FIG. 5 illustrates a graph showing the inhibition of TNF production by butoxamine, and induction of TNF release by atenolol and metoprolol. […].
This assay measured prazosin alone, and the combination of: prasozin/butoxamine, prasozin/butoxamine/terbutaline, prasozin/butoxamine/salbutamol, and prazosin/salbutamol. […].
We collected whole human blood in a polypropylene tube. Containing a final concentration of 10 units of heparin per ml of blood using gravity flow with 19-gauge needle. To prevent non-specific activation of cells, we used the blood within 30 minutes of draw. The blood was diluted with plasmalyte to 50%, 40%, 30%, 20%, and 10% concentrations. In a matrix based assay set up, each blood dilution was treated with various concentrations of LPS dosages ranging from 60 μg/ml, 10 μg/ml, 6 μg/ml, 1 μg/ml, 0.6 μg/ml, 0.1 μg/ml, and 0.06 μg/ml. The LPS treated blood was incubated at 37 degree in an incubator with continues rotation. Following the incubation, the blood was centrifuged and the plasma was evaluated for TNF quantification using the ELISA assay (BD Biosciences, Los Angeles, Calif.).
We initially tested the ability of LPS to produce TNF from monocytes, by adding various dilutions of LPS (60 μg, 10 μg, 6 μg, 1 μg, 0.6 μg, 0.1 μg, 0.06 μg) per ml of diluted blood (blood dilutions 50%, 40%, 20%, 10%, and 5%). Blood dilutions were made in the clinically relevant buffer “plasmalyte”. LPS treated blood was incubated at 37° C. for 2 hr. Following incubation, we separated the plasma samples by centrifugation. We evaluated the samples using TNF-ELISA. […] Relying on FIG. 1, we conducted a blood dilution curve with 10 μg/ml LPS (FIG. 2). Based on interpretation of FIGS. 1 and 2, we concluded that blood dilution of 20-25% would be ideal at an LPS dose of 10 μg/ml. Based on the FIG. 2 data, we found LPS causes a near linear increase of TNF production in 20% blood. […] If there is too much blood, there will be heavy concentrations of TNF production, exceeding the detection levels of the assay. Using this optimization data, we created a fixed method to measure the inhibition of TNF production or release with various drugs and drug combinations.
Blood was drawn from thirteen independent donors under an IRB approved protocol. […] The blood samples were spun and plasma evaluated for TNF production using TNF ELISA from BD Biosciences. […]. […] It could also provide a possible treatment for rheumatoid arthritis. […]

[3] = CIA mice, same experimental protocol; cited from earlier work
arthritis [4] = conditions: rat arthritis model; cited from earlier work
knee and ankle joints = assay: Histology of knee and ankle joints after CIA; conditions: CIA mice
[5] = Body weight in mouse CIA model (gross measure of drug toxicity); conditions: CIA mice, days 18-35

CC(C)(C)NCC(O)c1ccc(O)c(CO)c1 (stereo not shown) [Salbutamol, salbutamol]
inhibition of inflammation in an arthritis model (arthritis [1]): 50% | severity of collagen-induced arthritis (in words) ([2]; mouse, in vivo): reduces the severity of collagen-induced arthritis

Cc1ccc(N(CC2=NCCN2)c2cccc(O)c2)cc1 [Phentolamine, phentolamine]
effect on TNF production or release (in words) (TNFα; LPS 10 μg/ml): does not have the same level of inhibition as prazosin and yohimbine alone

Enbrel
body weight change, historical Enbrel data [3]: essentially unchanged

COCCc1ccc(OCC(O)CNC(C)C)cc1 (stereo not shown) [Metoprolol, metoprolol]
effect on TNF production or release (in words) (TNFα; LPS 10 μg/ml): significant elevation in the TNF response; also recorded: activators of TNF release

COC(=O)[C@@H]1[C@H]2C[C@H]3c4[nH]c5ccccc5c4CCN3C[C@@H]2CC[C@@H]1O [Yohimbine, yohimbine]
IC50 (TNFα; Homo sapiens, LPS 10 μg/ml, 25% blood diluted in plasmalyte, 37° C. 2 h): 70 to 100 µg/mL | inhibition of TNF production at the upper range of the dose curve (TNFα; LPS 10 μg/ml): 80%

CC(C)(C)NCC(O)c1cc(O)cc(O)c1 (stereo not shown) [Terbutaline, terbutaline]
inhibition of inflammation in an arthritis model (arthritis [1]): 50% | reduction of disease severity (arthritis [4]): 50% | benefit in collagen induced arthritis ([2]; mice): 50% | effect on TNF production or release (in words) (TNFα; LPS 10 μg/ml): minimal effect

COc1ccc(OC)c(C(O)C(C)NC(C)(C)C)c1 (racemic) [Butoxamine, DL-erythro-α-(2,5-dimethoxyphenyl)-β-t-butyl aminopropanol hydrochloride]
inhibition of arthritis in animals (in words) (arthritis [1]; previous reports): potent inhibitor of arthritis in animals | effect on TNF production or release (in words) (TNFα; LPS 10 μg/ml): very little inhibition if at all | inhibition of TNF production at the upper range of the dose curve (TNFα; LPS 10 μg/ml): ≤ 20%

CC(C)NCC(O)COc1ccc(CC(N)=O)cc1 (stereo not shown) [Atenolol, atenolol]
effect on TNF production or release (in words) (TNFα; LPS 10 μg/ml): significant elevation in the TNF response; also recorded: activators of TNF release

COc1cc2nc(N3CCN(C(=O)c4ccco4)CC3)nc(N)c2cc1OC [Prazosin, prazosin]
joint histology (Toluidine blue) (knee and ankle joints): prevents inflammation, bone and cartilage destruction, pannus formation and bone erosion | body weight change [5]: weight remained constant | body weight change ([5]; listed as NM2014): essentially unchanged | drug concentration at which TNF activity is inhibited (TNFα; LPS 10 μg/ml, 25% blood diluted in plasmalyte): 20 µg/mL | effect on TNF production or release (in words) (TNFα; LPS 10 μg/ml): lowest IC50 | inhibition of TNF production at the upper range of the dose curve (TNFα; LPS 10 μg/ml): ~100% | inhibition of TNF at the upper range of the dose curve, thirteen donors (TNFα; blood of thirteen independent donors, 37 degrees, 2 hours): ~100%
